Data on one compound can be found in patent US20260183209A1, “USE OF SANDALORE FOR IMPROVING THE STRUCTURE OF HAIR” (WELLA GERMANY GMBH, priority 2022, published 2026).

SMILES strings stand for the structures.

The test system of one experiment is keratin 85 (KRT85). As to the kind of experiment: Keratin 85 expression, fluorescence intensity in the precortical hair matrix of ex vivo human scalp skin sections. It counts as cell-based. The method, then: (§1) The “cross-section” or “diameter” of hair is determined by the microscopic sectioned, newly formed hair shaft diameter in the keratogenous region (in a distance of around 200-350 μm from the ‘germative matrix’). In an ex vivo human scalp skin culture and treatment, 6 mm skin punches (hairy skin from a healthy donor) were made following the hair growth orientation and maintained in normoxic (37° C., 5% CO2) condition. After 24 h resting (and then keeping) the culture in an Air-Liquid Interphase, two topical treatment were performed (day 1 and 3). Punches were embedded in an optimal cutting temperature compound after 5 days of ex vivo culture and cryosectioned (7 μm sections). The average value is calculated from 5 independent measurements for each hair follicle (HF).
Expression of keratin 85 (KRT85) is set by fluorescence intensity in the precortical hair matrix with a fluorescence microscope at 20× magnification. Skin sections were co-stained o.n. at 4° C. with a guinea pig anti-KRT85 antibody (Progen, 1:200) followed by DAPI (IUPAC: 4′,6-Diamidino-2-phenylindol) counterstain to visualize the nuclei. The mean KRT85 expression value was calculated from all hair follicles with Image J software within each donor, and fold changes values versus vehicle group were determined.

Experiment [1] relates to hair follicles of ex vivo human scalp skin culture. As to the kind of experiment: Cross-section / hair shaft diameter in ex vivo human scalp skin culture. It counts as cell-based. As to the method:
as §1
In an ex vivo human scalp skin culture, punches (hairy skin from a human donors) were twice (day 1 and 3) treated topically, and analysed via crysectioning after 5 days. The average value for each hair follicle (HF) is calculated from 5 independent measurements, and the following table indicates the mean of all average values over the total number of hair follices (#HFs) measured.

Experiment [2] concerns the target T1, olfactory receptor OR2AT4 (Homo sapiens, UniProt A6NND4).
T1 sequence (A6NND4 1-320): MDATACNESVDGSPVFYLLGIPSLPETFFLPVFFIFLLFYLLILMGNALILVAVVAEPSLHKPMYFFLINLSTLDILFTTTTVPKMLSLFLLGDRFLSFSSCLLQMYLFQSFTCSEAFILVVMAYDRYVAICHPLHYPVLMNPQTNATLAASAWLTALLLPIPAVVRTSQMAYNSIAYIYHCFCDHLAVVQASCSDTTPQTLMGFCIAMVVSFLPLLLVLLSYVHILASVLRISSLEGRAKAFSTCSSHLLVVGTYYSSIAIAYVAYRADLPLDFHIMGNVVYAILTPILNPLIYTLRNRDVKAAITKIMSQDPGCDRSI
The settings on record: receptor expressed in the epithelium of human hair follicles; cited from earlier work.

`CC1=CCC(CCC(C)C(C)O)C1(C)C` (centres unmarked) [Sandalore, 3-methyl-5-(2,2,3-trimethylcyclopent-3-en-1-yl) pentan-2-ol]: the “KRT85 expression, change vs vehicle group” value in the experiment with keratin 85 (KRT85) (fluorescence intensity, anti-KRT85 antibody staining, precortical hair matrix, mean over hair follicles) amounted to 1.347 fold. The “KRT85 expression, comparison in words” value in the experiment on keratin 85 (KRT85) (fold change values, vs vehicle group or vs Sandalore alone) is given as “significantly higher”. Also, the “effect on hair shaft diameter as compared to vehicle” value in experiment [1] (ex vivo human scalp skin culture, vs vehicle) is “increases the hair shaft diameter significantly”. The hair shaft diameter in experiment [1] (ex vivo human scalp skin punches, topical treatment day 1 and 3, cryosectioned after 5 days, mean over all hair follicles) is on record as 51.1 μm. Further, the “effect on olfactory receptor OR2AT4” value in experiment [2] is given as “stimulatory effect”.
